Assay results as given in EP3654984B1, “TOPICAL TREATMENT FOR PREVENTING AND MITIGATING SKIN CYTOTOXICITY DUE TO THERAPY WITH TYROSINE KINASE INHIBITORS” (EUCARE S.R.L., priority 2017, dated 2019).
Entries after “also recorded” stand apart in the source; their conditions may differ.

Assays:
[1] = tested on: patients with metastatic lung adenocarcinoma with EGFR mutations; conditions: cited from earlier work
[2] = tested on: Asian patients with advanced non-small-cell lung cancer harboring EGFR mutations; conditions: cited from earlier work
[3] = tested on: patients with EGFR mutation-positive non-small-cell lung cancer; conditions: LUX-Lung 7, cited from earlier work
[4] = tested on: patients with non-small cell lung cancer (NSCLC); conditions: afatinib 40 mg/day for 90 days, cited from earlier work
[5] = tested on: skin and subcutaneous tissue; conditions: EMA marketing authorization documentation; cited from earlier work
[6] = tested on: appropriate patient population; conditions: approximately; when given to an appropriate patient population; cited from earlier work
[7] = tested on: patients with metastatic lung cancer; assay: Retrospective study of prophylactic dermatological treatment with polydatin cream on cutaneous toxicity of afatinib (NCI-CTCAE v3.0 grading); type: in vivo; conditions: for Incidence of skin rash, All grades (%) / Incidence of skin rash, Grade 1 (%) / Incidence of skin rash, Grade 2 (%) / Incidence of skin rash, Grade 3 (%): 1.5% polydatin cream twice a day
Text: The main exclusion criteria were: poor patient compliance; allergy or sensitivity to polydatin; current or previous treatment with topical or oral antioxidant drugs; concomitant skin diseases.
The retrospective study was specifically designed to evaluate a proactive management of EGFR-mediated skin toxicity, in order to minimize the possibility of having to reduce the dose or suspend the antitumor treatment.
Patients were monitored every 7 days for the first month, and thereafter every 20 days or when needed.
Data about severity, duration and management of cutaneous toxicity induced by TKI were analyzed in all patients treated using a descriptive statistic.
The scale used for the classification of cutaneous toxicities induced by EGFR-targeted therapies was the classification scale of the Common Terminology Criteria for Adverse Events of the National Cancer Institute.

[8] = tested on: skin; conditions: skin reactions during treatment with sunitinib and sorafenib; cited from earlier work
[9] = of the 160 (afatinib) / 159 (gefitinib) patients treated
[10] = term used for a group of adverse events
[11] = Cutaneous rash, all patients (n = 34), afatinib 40 mg/day

CN(C)C/C=C/C(=O)Nc1cc2c(Nc3ccc(F)c(Cl)c3)ncnc2cc1O[C@H]1CCOC1 [Afatinib, afatinib]
treatment discontinued due to treatment-related adverse events ([1]; LUX LUNG 3, % of patients): 8% | incidence of rash grade 1-2 ([1]; LUX LUNG 3): 72.9% | Asthenia, All grades ([1]; LUX-Lung 3 (LL3)): 17.5% | Asthenia, Grade 3 ([1]; LUX-Lung 3 (LL3)): 1.3% | Asthenia, Grade 4 ([1]; LUX-Lung 3 (LL3)): 0% | Diarrhea, All grades ([1]; LUX-Lung 3 (LL3)): 95.2% | Diarrhea, Grade 3 ([1]; LUX-Lung 3 (LL3)): 14.4% | Diarrhea, Grade 4 ([1]; LUX-Lung 3 (LL3)): 0% | Dry skin, All grades ([1]; LUX-Lung 3 (LL3)): 29.3/NA % | Dry skin, Grade 3 ([1]; LUX-Lung 3 (LL3)): 0.4/NA % | Dry skin, Grade 4 ([1]; LUX-Lung 3 (LL3)): 0% | Hitching, All grades ([1]; LUX-Lung 3 (LL3)): 18.8% | Hitching, Grade 3 ([1]; LUX-Lung 3 (LL3)): 0.4/0.4% | Hitching, Grade 4 ([1]; LUX-Lung 3 (LL3)): 0% | Nausea, All grades ([1]; LUX-Lung 3 (LL3)): 17.9% | Nausea, Grade 3 ([1]; LUX-Lung 3 (LL3)): 0.9% | Nausea, Grade 4 ([1]; LUX-Lung 3 (LL3)): 0% | Paronychia/periungual problems, All grades ([1]; LUX-Lung 3 (LL3)): 56.8% | Paronychia/periungual problems, Grade 3 ([1]; LUX-Lung 3 (LL3)): 11.4% | Paronychia/periungual problems, Grade 4 ([1]; LUX-Lung 3 (LL3)): 0% | Rash/acne, All grades ([1]; LUX-Lung 3 (LL3)): 89.1% | Rash/acne, Grade 3 ([1]; LUX-Lung 3 (LL3)): 16.2% | Rash/acne, Grade 4 ([1]; LUX-Lung 3 (LL3)): 0.0% | Reduction of appetite, All grades ([1]; LUX-Lung 3 (LL3)): 20.5% | Reduction of appetite, Grade 3 ([1]; LUX-Lung 3 (LL3)): 3.1% | Reduction of appetite, Grade 4 ([1]; LUX-Lung 3 (LL3)): 0% | Stomatitis/mucositis, All grades ([1]; LUX-Lung 3 (LL3)): 72.1% | Stomatitis/mucositis, Grade 3 ([1]; LUX-Lung 3 (LL3)): 8.37% | Stomatitis/mucositis, Grade 4 ([1]; LUX-Lung 3 (LL3)): 0.4% | Vomiting, All grades ([1]; LUX-Lung 3 (LL3)): 17.0% | Vomiting, Grade 3 ([1]; LUX-Lung 3 (LL3)): 3.1% | Vomiting, Grade 4 ([1]; LUX-Lung 3 (LL3)): 0% | incidence of rash grade 1-2 ([2]; LUX LUNG 6): 66.1% | rate of treatment discontinuation due to adverse events ([2]; LUX LUNG 6): 2.1% | Asthenia, All grades ([2]; LUX-Lung 6 (LL6)): 10.0% | Asthenia, Grade 3 ([2]; LUX-Lung 6 (LL6)): 0.4% | Asthenia, Grade 4 ([2]; LUX-Lung 6 (LL6)): 0% | Diarrhea, All grades ([2]; LUX-Lung 6 (LL6)): 88.3% | Diarrhea, Grade 3 ([2]; LUX-Lung 6 (LL6)): 5.4% | Diarrhea, Grade 4 ([2]; LUX-Lung 6 (LL6)): 0% | Hitching, All grades ([2]; LUX-Lung 6 (LL6)): 10.9% | Hitching, Grade 3 ([2]; LUX-Lung 6 (LL6)): 0.4/0.4% | Hitching, Grade 4 ([2]; LUX-Lung 6 (LL6)): 0% | Nausea, All grades ([2]; LUX-Lung 6 (LL6)): 7.5% | Nausea, Grade 3 ([2]; LUX-Lung 6 (LL6)): 0.0% | Nausea, Grade 4 ([2]; LUX-Lung 6 (LL6)): 0% | Paronychia/periungual problems, All grades ([2]; LUX-Lung 6 (LL6)): 32.6% | Paronychia/periungual problems, Grade 3 ([2]; LUX-Lung 6 (LL6)): 0.0% | Paronychia/periungual problems, Grade 4 ([2]; LUX-Lung 6 (LL6)): 0% | Rash/acne, All grades ([2]; LUX-Lung 6 (LL6)): 80.8% | Rash/acne, Grade 3 ([2]; LUX-Lung 6 (LL6)): 14.2% | Rash/acne, Grade 4 ([2]; LUX-Lung 6 (LL6)): 0.4% | Reduction of appetite, All grades ([2]; LUX-Lung 6 (LL6)): 10.0% | Reduction of appetite, Grade 3 ([2]; LUX-Lung 6 (LL6)): 1.3% | Reduction of appetite, Grade 4 ([2]; LUX-Lung 6 (LL6)): 0% | Stomatitis/mucositis, All grades ([2]; LUX-Lung 6 (LL6)): 51.9% | Stomatitis/mucositis, Grade 3 ([2]; LUX-Lung 6 (LL6)): 5.4% | Stomatitis/mucositis, Grade 4 ([2]; LUX-Lung 6 (LL6)): 0.0% | Vomiting, All grades ([2]; LUX-Lung 6 (LL6)): 9.6% | Vomiting, Grade 3 ([2]; LUX-Lung 6 (LL6)): 0.8% | Vomiting, Grade 4 ([2]; LUX-Lung 6 (LL6)): 0% | ALT increased, All ([3]; ALT, alanine aminotransferase): 9.4% | AST increased, All ([3]; AST, aspartate aminotransferase): 6.3% | Diarrhea, All ([3]; afatinib 40 mg/day or gefitinib 250 mg/day): 90.0% | Alopecia, All [3]: 10.6% | Itching, All [3]: 23.1% | Nausea, All [3]: 16.3% | Nausea, Grade 3 [3]: 1.3% | Reduction of appetite, All [3]: 16.3% | Reduction of appetite, Grade 3 [3]: 0.6% | Vomiting, All [3]: 10.6% | Xerosis, All [3]: 32.5% | grade 3 or 4 diarrhea [3]: 13% | grade 3 or 4 rash or acne [3]: 9% | grade 3 or 4 diarrhea, number of patients [3, 9]: 20 patients | grade 3 or 4 rash or acne, number of patients [3, 9]: 15 patients | Asthenia*, All [3, 10]: 20.6% | Asthenia*, Grade 3 [3, 10]: 5.6% | Paronychia*, All [3, 10]: 55.6% | Paronychia*, Grade 3 [3, 10]: 1.9% | Rash/acne*, All [3, 10]: 88.8% | Rash/acne*, Grade 3 [3, 10]: 9.4% | Stomatitis*, All [3, 10]: 64.4% | Stomatitis*, Grade 3 [3, 10]: 4.4% | incidence of rash of any grade ([4]; control arm (no treatment)): 75.6% | incidence of rash grade ≥ 2 ([4]; control arm): 35.6% | frequency of acneiform dermatitis [5]: very common ("very common" (frequency ≥ 1/10)) | frequency of dryness of the skin (xerosis) [5]: very common ("very common" (frequency ≥ 1/10)) | frequency of itching [5]: very common ("very common" (frequency ≥ 1/10)) | frequency of palmoplantar erythrodysesthesia syndrome [5]: common ("common" (frequency ≥ 1/100 e < 1/10)) | frequency of skin rash [5]: very common ("very common" (frequency ≥ 1/10))

COc1cc2ncnc(Nc3ccc(F)c(Cl)c3)c2cc1OCCCN1CCOCC1 [Gefitinib, gefitinib]
response rates [6]: 60-70%

C#Cc1cccc(Nc2ncnc3cc(OCCOC)c(OCCOC)cc23)c1 [erlotinib]
response rates [6]: 60-70%

OC[C@H]1O[C@@H](Oc2cc(O)cc(/C=C/c3ccc(O)cc3)c2)[C@H](O)[C@@H](O)[C@@H]1O [polydatin, 3,4,5'-trihydroxystilbene-3-β-mono-d-glucoside]
patients who had to discontinue therapy due to toxicity of the antitumor drug ([7]; 1.5% polydatin cream prophylaxis, afatinib 40 mg/day, n = 34): no patient; also recorded: no suspension of treatment | Incidence of skin rash, All grades (%) [7, 11]: 41.2% | Incidence of skin rash, Grade 1 (%) [7, 11]: 20.6% | Incidence of skin rash, Grade 2 (%) [7, 11]: 20.6% | Incidence of skin rash, Grade 3 (%) [7, 11]: 0% | Incidence of skin rash, All grades (%) ([7]; Females, afatinib 40 mg/day): 23.5% | Incidence of skin rash, Grade 1 (%) ([7]; Females, afatinib 40 mg/day): 5.9% | Incidence of skin rash, Grade 2 (%) ([7]; Females, afatinib 40 mg/day): 8.6% | Incidence of skin rash, Grade 3 (%) ([7]; Females, afatinib 40 mg/day): 0% | Incidence of skin rash, All grades (%) ([7]; Males, afatinib 40 mg/day): 17.6% | Incidence of skin rash, Grade 1 (%) ([7]; Males, afatinib 40 mg/day): 14.7% | Incidence of skin rash, Grade 2 (%) ([7]; Males, afatinib 40 mg/day): 12% | Incidence of skin rash, Grade 3 (%) ([7]; Males, afatinib 40 mg/day): 0% | patients who had to reduce the dose for the cutaneous toxicity of the drug ([7]; prophylaxis with polydatin, afatinib, n = 34): no patient | patients who had to reduce the dose of afatinib from 40 to 30 mg/day due to intestinal toxicity (%) ([7]; prophylaxis with polydatin, n = 34): 35.3%

CNC(=O)c1cc(Oc2ccc(NC(=O)Nc3ccc(Cl)c(C(F)(F)F)c3)cc2)ccn1 [sorafenib]
alopecia [8]: 15% | folliculitis [8]: 38% | hand-foot syndrome (palmopantar erythrodysesthesia) [8]: 42% | nail alterations [8]: 14% | pruritus [8]: 36% | skin rash [8]: 46% | stomatitis [8]: 16%

CCN(CC)CCNC(=O)c1c(C)[nH]c(/C=C2\C(=O)Nc3ccc(F)cc32)c1C [sunitinib]
alopecia [8]: 15% | folliculitis [8]: 38% | hand-foot syndrome (palmopantar erythrodysesthesia) [8]: 42% | nail alterations [8]: 14% | pruritus [8]: 36% | skin rash [8]: 46% | stomatitis [8]: 16%
